Measured values taken from patent publication US20100068782A1, “METHOD FOR THE SURFACE TREATMENT OF SOLID SUBSTRATES” (UNIVERSIDAD DEL (PIAS) PAIS VASCO, priority 2006, published 2010).
Non-standard residues stand in square brackets, D forms with d. Residues, ends and D or L forms follow the SMILES beside them. *: point of attachment. Fmoc = O=C(OCC1c2ccccc2-c2ccccc21)*; Cha = N[C@@H](CC1CCCCC1)C(=O)O; AMC = Cc1cc(=O)oc2cc(N*)ccc12

Tested on: galanin receptors
Experiment: autoradiography of [35S]GTPγS binding in tissue arrays of isolated cell membranes with ligands of galanin receptors
Assay type: biochemical, Sprague Dawley rats
Settings: for antagonism of the action of galnon on [35S]GTPγS binding: galnon + antagonist, tissue arrays (FIG. 7); for binding of [35S]GTPγS in the presence of ligand: some tissues (e.g., pituitary), membranes on slides treated with orthophosphoric acid, vs basal
Description: Five male Sprague Dawley rats (250-275 g) were anesthetized and sacrificed according to the guide approved by the Ethics Committee of the Faculty of Medicine of the Basque Country University following internationally accepted guidelines (86/609/EEC). Organs and tissues which would be used in the experiment (pancreas, stomach, small intestine, spleen, heart, lung, liver, testicle, deferent duct, kidney, suprarenal glands, spinal cord and brain: frontal cortex, striatum, brain stem, pituitary, olfactory nuclei, hippocampus, hypothalamus, thalamus, colliculus and cerebellum) were subsequently extracted. These samples were stored at −70° C. until performing the experiment.
The tissue samples (1 g) were homogenized using a Teflon-glass homogenizer (10 taps at 1,500 rpm) in 30 volumes of homogenization buffer 1 mM [ethylene glycol-bis(β-aminoethyl)-N,N,N′,N′-tetraacetic acid (EGTA), 3 mM MgCl2, 1 mM dithiothreitol (DTT) and 50 mM Tris-HCl, pH 7.4] supplemented with […] sucrose. The crude homogenate was centrifuged at 3,000×g and at 4° C. for 5 minutes and the resulting supernatant was again centrifuged at 40,000×g for 10 minutes (4° C.). The pellet was washed in 20 volumes of homogenization buffer and re-centrifuged in the same conditions. Aliquots were prepared and stored at −70° C. The protein content was determined according to the Bradford method [Bradford M M., Anal Biochem 1976; 72:248-54] using bovine serum albumin (BSA) as standard.
Aliquots of 1 mg/ml of each tissue were taken and with this suspension, 1 μl microspots were made on glass supports (microscope slides) subjected to the following treatments: • a) Treated with orthophosphoric acid (PA) according to the process of Example 1; • b) Gelatinized (G); • c) Coated with gamma-aminopropyltriethoxysilane (APTS); • d) Treated with nitric acid and gelatinized (NA); • e) Treated with nitric acid and subsequently with lignin (NA+lignin); • f) Treated with nitric acid and subsequently with pectin (NA+pectin); or • g) Treated with nitric acid and subsequently with Kuzu (NA+Kuzu).
The microscope slides with the tissue sections were left drying for 15 minutes at room temperature. Subsequently the tissue sections were preincubated in assay buffer at pH 7.4 [50 mM Tris-HCl, 3 mM MgCl2, 0.2 mM EGTA, 100 mM NaCl, 3 mU/ml adenosine deaminase] for 20 minutes at room temperature to eliminate, as much as possible, the presence of endogenous neurotransmitters; after that, the sections were again preincubated in the assay buffer supplemented with guanosine diphosphate (GDP) (2 mM) and DTT (1 mM).
The microscope slides were then incubated for 2 hours at 30° C. in the previous assay buffer, to which the following substances were added depending on the different conditions of the experiment:
After this time, 2 15-minute washings were performed in 50 mM Tris-HCl buffer, pH 7.4 at 4° C. After the second washing, the sections were immersed in distilled water at 4° C. to eliminate the salts and the microscope slides were dried by means of the application of a cold airflow.
Subsequently, the microscope slides with the corresponding sections were exposed to a radiosensitive film (Kodak Biomax MR) which was developed similarly to photographic film. The labeling was quantified transforming the different gray densities into nCi/g tissue equivalent. To that end, each film was exposed together with previously calibrated commercial standards (Amersham). The quantification was performed with microscopic anatomical resolution in a computerized image analysis system, using NIH-image software.
The substances added in the different assays were the following: • (A) To study the binding of [^35S]GTPγS in the absence (basal) and in the presence of agonists, the following agonists were used: • (i) the cannabinoid agonist WIN 55212-2 [(R)-(+)-[2,3-dihydro-5-methyl-3-[(4-morpholinyl)methyl]pyrrolo[1,2,3-d,e]-1.4-benzoxazin-6-yl]-(1-naphthalenyl)methanone mono-methanesulphonate] […]

Molecule	antagonism of the action of galnon on [35S]GTPγS binding	binding of [35S]GTPγS in the presence of ligand
galanin-(1-13)-bradykinin,-(2,9)amide [M35]	antagonized	increases
Cc1cc(=O)oc2cc(NC(=O)[C@H](CCCCN)NC(=O)[C@H](CC3CCCCC3)NC(=O)OCC3c4ccccc4-c4ccccc43)ccc12 [galnon] (Fmoc-[Cha]-Lys-{AMC})	–	increases
galanin-(1-13)-Pro-Pro-Ala-Leu-Ala-Leu-Ala-Leu-Ala amide [M40]	antagonized	increases
gal(2-11)	–	increases
galanin-(1-13)-substance P-5-11 amide [M15]	–	increases
